Measured values as given in ChEMBL document CHEMBL3885881, “DrugMatrix”.

Organism: Rattus norvegicus
Experiment: DrugMatrix - Regimen: Daily Repeat
Format: toxicity, organism-based, Sprague-Dawley
Parameters: regimen Daily Repeat, gender Male, age 6-8 weeks
Details: in vivo, po, route oral GAVAGE, vehicle .5 % CMC; for ABSOLUTE BASOPHIL / ABSOLUTE EOSINOPHIL / ABSOLUTE LYMPHOCYTE / ABSOLUTE MONOCYTE / ABSOLUTE SEGMENTED NEUTROPHIL / BASOPHIL / EOSINOPHIL / ERYTHROCYTE COUNT / HEMATOCRIT / HEMOGLOBIN / LEUKOCYTE COUNT / LYMPHOCYTE / MEAN CORPUSCULAR HEMOGLOBIN / MEAN CORPUSCULAR HEMOGLOBIN CONCENTRATION / MEAN CORPUSCULAR VOLUME / MONOCYTE / NEUTROPHIL / NUCLEATED RED BLOOD CELLS / PLATELET COUNT: tissue Blood; for ALANINE AMINOTRANSFERASE / ALBUMIN / ALKALINE PHOSPHATASE / ASPARTATE AMINOTRANSFERASE / BLOOD UREA NITROGEN / CARBON DIOXIDE / CHLORIDE / CHOLESTEROL / CREATINE PHOSPHOKINASE / CREATININE / GLUCOSE / LACTATE DEHYDROGENASE / LIPASE / PHOSPHORUS / POTASSIUM / SODIUM / TOTAL BILIRUBIN / TOTAL PROTEIN / URIC ACID: tissue Plasma
[1] = 0.3 mg/kg, 72 h, dose level Low, time 3 day
[2] = 0.3 mg/kg, 120 h, dose level Low, time 5 day
[3] = 5 mg/kg, 72 h, dose level High, time 3 day
[4] = 5 mg/kg, 120 h, dose level High, time 5 day

## Nc1c(CC(=O)O)cccc1C(=O)c1ccc(Br)cc1 [BROMFENAC]
[1]
  ABSOLUTE BASOPHIL: 0 CELLS/uL
  ABSOLUTE EOSINOPHIL: 0 CELLS/uL
  ABSOLUTE LYMPHOCYTE: 8435.67 CELLS/uL
  ABSOLUTE MONOCYTE: 96.67 CELLS/uL
  ABSOLUTE SEGMENTED NEUTROPHIL: 1134.33 CELLS/uL
  BASOPHIL: 0%
  EOSINOPHIL: 0%
  ERYTHROCYTE COUNT: 5.55 x10E6/uL
  HEMATOCRIT: 35.1%
  HEMOGLOBIN: 13.07 G/DL
  LEUKOCYTE COUNT: 9.67 x10E3/uL
  LYMPHOCYTE: 88%
  MEAN CORPUSCULAR HEMOGLOBIN: 23.57 pg
  MEAN CORPUSCULAR HEMOGLOBIN CONCENTRATION: 37.2 G/DL
  MEAN CORPUSCULAR VOLUME: 63.33 fL
  MONOCYTE: 1%
  NEUTROPHIL: 11%
  NUCLEATED RED BLOOD CELLS: 0 /100WBC
  PLATELET COUNT: 1028.33 x10E3/uL
  ALANINE AMINOTRANSFERASE: 48.33 u/L
  ALBUMIN: 4.43 G/DL
  ALKALINE PHOSPHATASE: 514.33 u/L
  ASPARTATE AMINOTRANSFERASE: 96 u/L
  BLOOD UREA NITROGEN: 15.67 mg/dL
  CARBON DIOXIDE: 31.33 mmol/L
  CHLORIDE: 101.5 MEQ/L
  CHOLESTEROL: 68.67 mg/dL
  CREATINE PHOSPHOKINASE: 316.33 u/L
  CREATININE: 0.23 mg/dL
  GLUCOSE: 142 mg/dL
  LACTATE DEHYDROGENASE: 121.67 u/L
  LIPASE: 9.67 u/L
  PHOSPHORUS: 11.03 mg/dL
  POTASSIUM: 5.91 MEQ/L
  SODIUM: 144.65 MEQ/L
  TOTAL BILIRUBIN: 0.1 mg/dL
  TOTAL PROTEIN: 6.13 G/DL
  URIC ACID: 0.67 mg/dL
[2]
  ABSOLUTE BASOPHIL: 0 CELLS/uL
  ABSOLUTE EOSINOPHIL: 0 CELLS/uL
  ABSOLUTE LYMPHOCYTE: 10092.67 CELLS/uL
  ABSOLUTE MONOCYTE: 194 CELLS/uL
  ABSOLUTE SEGMENTED NEUTROPHIL: 1180 CELLS/uL
  BASOPHIL: 0%
  EOSINOPHIL: 0%
  ERYTHROCYTE COUNT: 5.77 x10E6/uL
  HEMATOCRIT: 37.27%
  HEMOGLOBIN: 13.97 G/DL
  LEUKOCYTE COUNT: 11.47 x10E3/uL
  LYMPHOCYTE: 87.33%
  MEAN CORPUSCULAR HEMOGLOBIN: 24.17 pg
  MEAN CORPUSCULAR HEMOGLOBIN CONCENTRATION: 37.5 G/DL
  MEAN CORPUSCULAR VOLUME: 64.5 fL
  MONOCYTE: 1.33%
  NEUTROPHIL: 11.33%
  NUCLEATED RED BLOOD CELLS: 0 /100WBC
  PLATELET COUNT: 1201.33 x10E3/uL
  ALANINE AMINOTRANSFERASE: 48.67 u/L
  ALBUMIN: 4.57 G/DL
  ALKALINE PHOSPHATASE: 385 u/L
  ASPARTATE AMINOTRANSFERASE: 86.33 u/L
  BLOOD UREA NITROGEN: 15.67 mg/dL
  CARBON DIOXIDE: 35.33 mmol/L
  CHLORIDE: 99.67 MEQ/L
  CHOLESTEROL: 83.67 mg/dL
  CREATINE PHOSPHOKINASE: 586 u/L
  CREATININE: 0.2 mg/dL
  GLUCOSE: 151 mg/dL
  LACTATE DEHYDROGENASE: 148.33 u/L
  LIPASE: 9.33 u/L
  PHOSPHORUS: 10.9 mg/dL
  POTASSIUM: 6.38 MEQ/L
  SODIUM: 143.9 MEQ/L
  TOTAL BILIRUBIN: 0.2 mg/dL
  TOTAL PROTEIN: 6.77 G/DL
  URIC ACID: 0.8 mg/dL
[3]
  ABSOLUTE BASOPHIL: 0 CELLS/uL
  ABSOLUTE EOSINOPHIL: 0 CELLS/uL
  ABSOLUTE LYMPHOCYTE: 5201.4 CELLS/uL
  ABSOLUTE MONOCYTE: 116 CELLS/uL
  ABSOLUTE SEGMENTED NEUTROPHIL: 1982.6 CELLS/uL
  BASOPHIL: 0%
  EOSINOPHIL: 0%
  ERYTHROCYTE COUNT: 4.97 x10E6/uL
  HEMATOCRIT: 30.78%
  HEMOGLOBIN: 11.8 G/DL
  LEUKOCYTE COUNT: 7.3 x10E3/uL
  LYMPHOCYTE: 72.6%
  MEAN CORPUSCULAR HEMOGLOBIN: 23.92 pg
  MEAN CORPUSCULAR HEMOGLOBIN CONCENTRATION: 38.52 G/DL
  MEAN CORPUSCULAR VOLUME: 62.06 fL
  MONOCYTE: 1.8%
  NEUTROPHIL: 25.6%
  NUCLEATED RED BLOOD CELLS: 0 /100WBC
  PLATELET COUNT: 593.4 x10E3/uL
  ALANINE AMINOTRANSFERASE: 100 u/L
  ALBUMIN: 3.64 G/DL
  ALKALINE PHOSPHATASE: 337.8 u/L
  ASPARTATE AMINOTRANSFERASE: 193.2 u/L
  BLOOD UREA NITROGEN: 10.2 mg/dL
  CARBON DIOXIDE: 31.2 mmol/L
  CHLORIDE: 103.4 MEQ/L
  CHOLESTEROL: 84.6 mg/dL
  CREATINE PHOSPHOKINASE: 304.4 u/L
  CREATININE: 0.19 mg/dL
  GLUCOSE: 147.4 mg/dL
  LACTATE DEHYDROGENASE: 116.6 u/L
  LIPASE: 8.4 u/L
  PHOSPHORUS: 11.14 mg/dL
  POTASSIUM: 5.44 MEQ/L
  SODIUM: 146.66 MEQ/L
  TOTAL BILIRUBIN: 0.14 mg/dL
  TOTAL PROTEIN: 5.36 G/DL
  URIC ACID: 0.76 mg/dL
[4]
  ABSOLUTE BASOPHIL: 0 CELLS/uL
  ABSOLUTE EOSINOPHIL: 23.5 CELLS/uL
  ABSOLUTE LYMPHOCYTE: 8259.25 CELLS/uL
  ABSOLUTE MONOCYTE: 191.75 CELLS/uL
  ABSOLUTE SEGMENTED NEUTROPHIL: 1625.5 CELLS/uL
  BASOPHIL: 0%
  EOSINOPHIL: 0.25%
  ERYTHROCYTE COUNT: 4.46 x10E6/uL
  HEMATOCRIT: 28.57%
  HEMOGLOBIN: 11 G/DL
  LEUKOCYTE COUNT: 10.1 x10E3/uL
  LYMPHOCYTE: 81.75%
  MEAN CORPUSCULAR HEMOGLOBIN: 24.82 pg
  MEAN CORPUSCULAR HEMOGLOBIN CONCENTRATION: 38.55 G/DL
  MEAN CORPUSCULAR VOLUME: 64.3 fL
  MONOCYTE: 2%
  NEUTROPHIL: 16%
  NUCLEATED RED BLOOD CELLS: 0.5 /100WBC
  PLATELET COUNT: 1087.25 x10E3/uL
  ALANINE AMINOTRANSFERASE: 38.5 u/L
  ALBUMIN: 3.65 G/DL
  ALKALINE PHOSPHATASE: 255.67 u/L
  ASPARTATE AMINOTRANSFERASE: 60 u/L
  BLOOD UREA NITROGEN: 13.75 mg/dL
  CARBON DIOXIDE: 31.5 mmol/L
  CHLORIDE: 101.67 MEQ/L
  CHOLESTEROL: 80.25 mg/dL
  CREATINE PHOSPHOKINASE: 189 u/L
  CREATININE: 0.15 mg/dL
  GLUCOSE: 141.25 mg/dL
  LACTATE DEHYDROGENASE: 82.25 u/L
  LIPASE: 8.25 u/L
  PHOSPHORUS: 10.7 mg/dL
  POTASSIUM: 5.87 MEQ/L
  SODIUM: 145.27 MEQ/L
  TOTAL BILIRUBIN: 0.13 mg/dL
  TOTAL PROTEIN: 5.8 G/DL
  URIC ACID: 0.57 mg/dL
